From publication PMC7956344, “Structure Elucidation and Cholinesterase Inhibition Activity of Two New Minor Amaryllidaceae Alkaloids” (Molecules, 2021)
Read-outs that look alike come from different tables or passages of the source.

How the values were obtained:
[1] = target: T1, human butyrylcholinesterase (hBuChE) (Homo sapiens, UniProt P06276); test: hBuChE inhibition assay (modified Ellman method, BuTChI substrate); assay type: biochemical; conditions: for IC50: mean ± SEM of three independent measurements, each in triplicate; for % Inhibition hBuChE ± SEM / inhibition at 100 µM: tested at 100 µM compound concentration; for % Inhibition hBuChE ± SEM: 100 µM; for inhibition at 100 µM: read-out: % Inhibition hBuChE ± SEM
[2] = indicated centrally active crossing of the BBB via passive diffusion; cited from earlier work
[3] = target: T1, human butyrylcholinesterase (hBuChE); conditions: previously isolated narcikachnine-type alkaloids; cited from earlier work
POP = conditions: previously isolated narcikachnine-type alkaloids; cited from earlier work

T1 sequence (P06276 29-602): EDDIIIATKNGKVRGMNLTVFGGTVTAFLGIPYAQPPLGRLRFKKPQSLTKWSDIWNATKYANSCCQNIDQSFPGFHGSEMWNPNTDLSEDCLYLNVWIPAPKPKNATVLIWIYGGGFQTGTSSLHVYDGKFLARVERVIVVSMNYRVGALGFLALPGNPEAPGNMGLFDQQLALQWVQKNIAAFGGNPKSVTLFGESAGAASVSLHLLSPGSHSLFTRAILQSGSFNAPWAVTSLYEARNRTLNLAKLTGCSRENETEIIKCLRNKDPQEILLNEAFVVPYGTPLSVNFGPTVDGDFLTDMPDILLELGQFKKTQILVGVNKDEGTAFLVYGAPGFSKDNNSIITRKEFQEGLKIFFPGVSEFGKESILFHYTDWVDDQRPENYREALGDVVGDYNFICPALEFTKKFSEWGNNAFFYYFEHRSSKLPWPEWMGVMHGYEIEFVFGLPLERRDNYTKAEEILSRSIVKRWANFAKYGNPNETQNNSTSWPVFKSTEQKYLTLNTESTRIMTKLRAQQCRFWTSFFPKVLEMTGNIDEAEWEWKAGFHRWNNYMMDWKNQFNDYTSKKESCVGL

| SMILES | IC50 [1] [µM] | % Inhibition hBuChE ± SEM [1] | inhibition at 100 µM [1] [%] | in vitro permeability (Pe) [2] | IC50 [3] [µM] | IC50 (POP) [µM] |
| --- | --- | --- | --- | --- | --- | --- |
| COc1cc2c(cc1O)[C@@H](O)O[C@@H]1CC=C3CCN(C)[C@H]3[C@H]21 [9-O-demethyllycorenine (1), 9-O-demethyllycorenine] | > 100 | almost devoid of cholinesterase inhibitory activity | 30.2 ± 0.8 | – | – | – |
| COc1ccc2c3c1O[C@H]1C[C@@H](O)C=C[C@@]31CCN(C)C2 [galantamine] | – | – | 68.2 ± 1.2 | – | – | – |
| COc1cc(-c2cccc3c2N(C)CC3)c(CN2CC[C@@]34C=C[C@H](O)C[C@@H]3Oc3c(OC)ccc(c34)C2)cc1O [narciabduliine (2), narciabduliine] | 3.44 ± 0.02 | 94.1 ± 0.2% | > 90 | – | – | – |
| COc1cc(-c2cccc3c2N(C)CC3)c(CN2CC[C@@]34C=C[C@H](O)C[C@@H]3Oc3c(OC)ccc(c34)C2)c(OC)c1OC [narcieliine] | – | – | – | 14.1 ± 1.0 × 10^−6 cm·s^−1 | 1.3 ± 0.3 | 163 ± 13 |
| COc1ccc2c3c1OC1CC(=O)CCC31CCN(Cc1cc3c(cc1-c1cccc4c1N(C)CC4)OCO3)C2 (stereo not shown) [narcimatuline] | – | – | – | – | 5.9 ± 0.2 | 29.2 ± 1 |
| COc1ccc2c3c1OC1CC(O)CCC31CCN(Cc1cc3c(cc1-c1cccc4ccn(C)c14)OCO3)C2 (stereo not shown) [narcipavline] | – | – | – | – | 24.4 ± 1.2 | – |
